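Step 1: Grow cells in 96-well plates. Step 2: Expose to compound for 48 hours at 5 concentrations. Step 3: Interpolate endpoints linearly; if unreached, use highest concentration. Abbreviation: GI50, concentration required for 50% inhibition of growth. At the TGI there is no net growth.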
Assays:
Test in all cases: NCI-60 cell line screen, 48 h
OVCAR-4 ovarian = test system: OVCAR-4 ovarian
PC-3 prostate = test system: PC-3 prostate
HL-60(TB) leukemia = test system: HL-60(TB) leukemia
OVCAR-8 ovarian = test system: OVCAR-8 ovarian
NCI/ADR-RES ovarian = test system: NCI/ADR-RES ovarian
LOX IMVI melanoma = test system: LOX IMVI melanoma
CCRF-CEM leukemia = test system: CCRF-CEM leukemia
HCC-2998 colon = test system: HCC-2998 colon
EKVX NSCLC = test system: EKVX NSCLC
NCI-H23 lung = test system: NCI-H23 lung
A549 NSCLC = test system: A549 NSCLC

Compound	TGI (OVCAR-4 ovarian) [µM]	TGI (PC-3 prostate) [µM]	TGI (HL-60(TB) leukemia) [µM]	TGI (OVCAR-8 ovarian) [µM]	TGI (NCI/ADR-RES ovarian) [µM]	TGI (LOX IMVI melanoma) [µM]	TGI (CCRF-CEM leukemia) [µM]	TGI (HCC-2998 colon) [µM]	TGI (EKVX NSCLC) [µM]	TGI (NCI-H23 lung) [µM]	TGI (A549 NSCLC) [µM]	GI50 (PC-3 prostate) [µM]	GI50 (HL-60(TB) leukemia) [µM]	GI50 (OVCAR-8 ovarian) [µM]	GI50 (A549 NSCLC) [µM]	GI50 (NCI/ADR-RES ovarian) [µM]	GI50 (LOX IMVI melanoma) [µM]	GI50 (CCRF-CEM leukemia) [µM]	GI50 (EKVX NSCLC) [µM]	GI50 (NCI-H23 lung) [µM]
COc1ccccc1C(=O)c1c(NCc2ccccc2)c(=O)c1=O	> 100	> 100	> 100	> 100	> 100	> 100	> 100	> 100	> 100	> 100										
CC(=O)Nc1ccc(C2SCc3nc4ccccc4n32)cc1 (configuration not stated)	> 100	> 100	> 100	> 100	> 100	> 100	> 100	> 100	> 100	> 100	> 100									
CC(=O)O[C@H]1[C@H](OC(=O)CC(C)(O)CC(=O)O)C[C@]2(C)C3=C(CCC2C1(C)C)[C@]1(C)CC[C@H]([C@H]2CC[C@H](C(C)(C)O)OC2O)[C@@]1(C)[C@@H](O)C3 (some centres not stated)	37.8	33.2	36.5	35.4	> 100	35.9	49.7	31.7	38.9	32.2	98									
CCOC(=O)c1ccc(N=c2sc3ccccc3nc2Nc2ccc(C(=O)OCC)cc2)cc1	> 100	> 100	> 100	> 100	> 100	> 100	> 100	> 100	> 100	> 100	> 100									
CO/N=C(\C)c1cccc(Nc2c3ccccc3nc3occc23)c1	18	> 100	13.6	66.4	15.6	27.4	> 100	20.4	37.2	20.9	57.3									
CC1=C(C(=O)Nc2ccccc2)C2(CCCCC2)C(C#N)=C(SCC(=O)Nc2ccc(Br)cc2)N1	> 75.2	7.96	13.7	34.9	27.3	9.96	7.02	10.4	7.81	23.3	22.3									
CCCCn1c2c(n(CCCC)c1=S)-c1c(n(CCCC)c(=S)n1CCCC)SSc1c(n(CCCC)c(=S)n1CCCC)-c1c(n(CCCC)c(=S)n1CCCC)SSc1c(n(CCCC)c(=S)n1CCCC)-c1c(n(CCCC)c(=S)n1CCCC)SS2	> 19.7	18.9	4.46	> 13.6	> 50	13.3	> 14.7	> 50	> 50	> 50	> 50									
CC(C)/C(Cl)=N\OC(=O)Nc1cccc(Cl)c1	27	29.7	3.3	29.4	> 57	8.71	5.05	31.7	31.7	34	35.7									
COC(=O)C1(C)C=CC(=O)C2(C)C1C(O)C1OC3CC(c4ccoc4)C(C)=C3C1(C)C2CC(=O)O (configuration not stated)	> 100	> 100	> 100	> 100	> 100	> 100	> 100	> 100	> 100	> 100	> 100									
CCCCCCCCCCCCC(O)[C@H]1CC[C@H](C(O)CCCCCC(=O)CCCCC2CC(C(C)=O)C(=O)O2)O1 (some centres not stated)	39.4	28.1	> 29.5	> 53.9	40.4	21.6	> 45.6	32.1	54.8	63.8	> 100	3.55	2.68	4.34	2.33	1.87	1.87	2.15	3.24	1.72
Cc1ccc(S(=O)(=O)NNCNC(=O)c2ccccc2)cc1	> 100	> 100	48.2	> 100	> 100	> 100	63.2	> 100	> 100	> 100	> 100									
CC(C)(C)c1cc(O)ccc1O	> 71.5	5.3	26.7	> 84.2	> 100	> 74.6	33.2	> 17.6	> 100	> 100	> 100									
O=C1C(c2c(O)[nH]c3ccc(Br)cc23)=Nc2ccccc21	29.8	17.8	> 100	21.7	> 100	25.8	> 100	13.5	20.2	40.1	17.3									
OCCNCNc1nc(NCNCCO)nc(N(CNCCO)CNCCO)n1	> 65.4	50	63.8	59.5	54	40.2	> 69.7	36.4	57	46.1	> 78.2									
